The target of test [1] is T1, FAP-expressing human WI-38 fibroblasts (Homo sapiens, UniProt Q12884).
T1 construct: FAP-expressing human WI-38 fibroblasts (ECACC) were cultured in EMEM; host or cells: WI-38 human fibroblasts
In words: Competitive FACS binding assay. The method, then: Cells were analyzed in an Attune NxT flow cytometer. […] […].
Cells were analyzed in an Attune NxT flow cytometer. […]
(Flow cytometry measures light scatter and fluorescence of single cells or particles in a stream.)

Another test concerns the target Human recombinant FAP (Homo sapiens, UniProt Q12884). Description: FRET-based FAP protease activity assay. The test is classed as biochemical. Also on record: purchased R&D systems 3715-SE. As to conditions: pIC50 Category (Activity), 37° C.
[2] abbreviates: FRET-based FAP protease activity assay, recombinant human FAP.

Numbered stars: 1 amine (or outer) side, 2 acyl side, 3 side chain; on linkers, the order of the positions; unused ones are H or OH. Bridge positions count the residues as written; N and C are the ends. Peptide text beside a SMILES is read from it. * marks the point of attachment. X13 = O=C(O)CN1CCN(CC(=O)O)CCN(CC(=O)N2CCN(Cc3cc(C[*:1])cc(C[*:2])c3)CC2)CCN(CC(=O)O)CC1; Hexanoyl = CCCCCC(=O)*

Chain of Human recombinant FAP (Q12884 whole entry): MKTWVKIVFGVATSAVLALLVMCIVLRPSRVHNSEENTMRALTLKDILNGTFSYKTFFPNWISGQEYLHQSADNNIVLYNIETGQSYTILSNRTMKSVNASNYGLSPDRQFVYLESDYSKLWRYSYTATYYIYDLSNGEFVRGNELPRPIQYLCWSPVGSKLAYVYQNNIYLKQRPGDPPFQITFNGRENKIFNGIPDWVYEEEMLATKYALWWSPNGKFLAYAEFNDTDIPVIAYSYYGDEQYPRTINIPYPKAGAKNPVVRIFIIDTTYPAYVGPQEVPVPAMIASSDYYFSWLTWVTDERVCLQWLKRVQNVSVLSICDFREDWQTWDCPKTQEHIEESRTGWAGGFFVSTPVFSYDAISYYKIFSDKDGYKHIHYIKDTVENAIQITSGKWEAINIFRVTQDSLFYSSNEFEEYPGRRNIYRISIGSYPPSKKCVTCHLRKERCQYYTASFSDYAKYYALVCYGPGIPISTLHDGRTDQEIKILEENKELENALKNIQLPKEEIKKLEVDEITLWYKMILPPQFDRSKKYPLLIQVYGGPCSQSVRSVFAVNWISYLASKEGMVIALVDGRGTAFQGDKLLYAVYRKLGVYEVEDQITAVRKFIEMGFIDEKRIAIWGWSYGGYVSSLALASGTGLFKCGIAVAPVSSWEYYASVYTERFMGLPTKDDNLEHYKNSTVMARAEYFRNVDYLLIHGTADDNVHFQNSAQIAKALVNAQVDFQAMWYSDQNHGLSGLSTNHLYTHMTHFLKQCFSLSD
T1 sequence (Q12884 whole entry): as above

In the case of `CC(=O)N[C@@H](CCO)C(=O)N[C@H]1CSCc2cccc(c2)CSC[C@@H](C(N)=O)NC(=O)[C@H](Cc2ccccc2)NC(=O)[C@H](CCC(N)=O)NC(=O)[C@H]([C@@H](C)O)NC(=O)[C@@H]2CCCN2C(=O)[C@@H]2CCCN2C1=O` [3BP-3763, Ac-Hse-[Cys(3MeBn)-Pro-Pro-Thr-Gln-Phe-Cys]-NH2], the results for the IC50 (in test [1]; at Human recombinant FAP (setting [2])) were > 1000 nM and 100 to 794 nM, respectively.
In the case of `CC(=O)N[C@@H](CCCC(=O)O)C(=O)N[C@H]1CSCc2cccc(c2)CSC[C@@H](C(N)=O)NC(=O)[C@H](Cc2ccccc2)NC(=O)[C@H](CCC(N)=O)NC(=O)[C@H]([C@@H](C)O)NC(=O)[C@@H]2CCCN2C(=O)[C@@H]2CCCN2C1=O` [3BP-3764, Ac-Aad-[Cys(3MeBn)-Pro-Pro-Thr-Gln-Phe-Cys]-NH2], the IC50 (in test [1]; on Human recombinant FAP (setting [2])) was > 1000 nM throughout.
As to `C[C@@H](O)[C@@H]1NC(=O)[C@@H]2CCCN2C(=O)[C@@H]2CCCN2C(=O)[C@@H](NC(=O)CCCC(=O)O)CSCc2cccc(c2)CSC[C@@H](C(N)=O)NC(=O)[C@H](Cc2ccccc2)NC(=O)[C@H](CCC(N)=O)NC1=O` [3BP-3765, HO-Glutar-[Cys(3MeBn)-Pro-Pro-Thr-Gln-Phe-Cys]-NH2], the half-maximal inhibitory concentration (IC50) (in test [1]; at Human recombinant FAP (setting [2])) was 100 to 794 nM in each case.
`CCCCCC(=O)N[C@H]1CSCc2cc(cc(CN3CCN(C(=O)CN4CCN(CC(=O)O)CCN(CC(=O)O)CCN(CC(=O)O)CC4)CC3)c2)CSC[C@@H](C(=O)N[C@@H](CC(=O)O)C(N)=O)NC(=O)[C@H](CCC(N)=O)NC(=O)[C@H](Cc2ccccc2)NC(=O)[C@@H]2CCCN2C(=O)[C@H]([C@@H](C)O)NC(=O)[C@@H]2CCCN2C1=O` [3BP-3854, Hex-[Cys(tMeBn(DOTA-PP))-Pro-Thr-Pro-Phe-Gln-Cys]-Asp-NH2] (Hexanoyl-CPTPFQCD-NH2; linker 1-7 via X13): the IC50 (in test [1]; at Human recombinant FAP (setting [2])) was > 1000 nM each time.
Take `CCCCCC(=O)N[C@H]1CSCc2cc(cc(CN3CCN(C(=O)CN4CCN(CC(=O)O)CCN(CC(=O)O)CCN(CC(=O)O)CC4)CC3)c2)CSC[C@@H](C(=O)N[C@@H](CC(=O)O)C(N)=O)NC(=O)[C@@H]2CCCN2C(=O)[C@@H]2CCCN2C(=O)[C@H]([C@@H](C)O)NC(=O)[C@H](CCC(N)=O)NC(=O)[C@H](Cc2ccccc2)NC1=O` [3BP-3855, Hex-[Cys(tMeBn(DOTA-PP))-Phe-Gln-Thr-Pro-Pro-Cys]-Asp-NH2] (Hexanoyl-CFQTPPCD-NH2; linker 1-7 via X13): the IC50 (in test [1]; on Human recombinant FAP (setting [2])) was > 1000 nM each time.
Take `CCCCCC(=O)N[C@H]1CSCc2cc(cc(CN3CCN(C(=O)CN4CCN(CC(=O)O)CCN(CC(=O)O)CCN(CC(=O)O)CC4)CC3)c2)CSC[C@@H](C(=O)N[C@@H](CC(=O)O)C(N)=O)NC(=O)[C@@H]2CCCN2C(=O)[C@H](Cc2ccccc2)NC(=O)[C@@H]2CCCN2C(=O)[C@H](CCC(N)=O)NC(=O)[C@H]([C@@H](C)O)NC1=O` [3BP-3856, Hex-[Cys(tMeBn(DOTA-PP))-Thr-Gln-Pro-Phe-Pro-Cys]-Asp-NH2] (Hexanoyl-CTQPFPCD-NH2; linker 1-7 via X13): the IC50 (in test [1]; at Human recombinant FAP (setting [2])) was > 1000 nM throughout.
`CCCCCC(=O)N[C@H]1CSCc2cc(cc(CN3CCN(C(=O)CN4CCN(CC(=O)O)CCN(CC(=O)O)CCN(CC(=O)O)CC4)CC3)c2)CSC[C@@H](C(=O)N[C@@H](CC(=O)O)C(N)=O)NC(=O)[C@H]([C@@H](C)O)NC(=O)[C@@H]2CCCN2C(=O)[C@H](Cc2ccccc2)NC(=O)[C@H](CCC(N)=O)NC(=O)[C@@H]2CCCN2C1=O` [3BP-3857, Hex-[Cys(tMeBn(DOTA-PP))-Pro-Gln-Phe-Pro-Thr-Cys]-Asp-NH2] (Hexanoyl-CPQFPTCD-NH2; linker 1-7 via X13): the IC50 (in test [1]; at Human recombinant FAP (setting [2])) was 100 to 794 nM throughout.
As for `C[C@@H](O)[C@@H]1NC(=O)[C@@H]2CCCN2C(=O)[C@@H]2CCCN2C(=O)[C@@H](NC(=O)CCCS(N)(=O)=O)CSCc2cccc(c2)CSC[C@@H](C(N)=O)NC(=O)[C@H](Cc2ccccc2)NC(=O)[C@H](CCC(N)=O)NC1=O` [3BP-3860, H2NSO2-But-[Cys(3MeBn)-Pro-Pro-Thr-Gln-Phe-Cys]-NH2], the IC50 (in test [1]; at Human recombinant FAP (setting [2])) was > 1000 nM each time.
As for `C[C@@H](O)[C@@H]1NC(=O)[C@@H]2CCCN2C(=O)[C@@H]2CCCN2C(=O)[C@@H](NC(=O)C2CCCCC2)CSCc2cc(CSCCNC(=O)CN3CCN(CC(=O)O)CCN(CC(=O)O)CCN(CC(=O)O)CC3)cc(c2)CSC[C@@H](C(=O)O)NC(=O)[C@H](Cc2ccccc2)NC(=O)[C@H](CCC(N)=O)NC1=O` [3BP-3908, Chex-[Cys(tMeBn(DOTA-AET))-Pro-Pro-Thr-Gln-Phe-Cys]-OH], the IC50 (in test [1]; on Human recombinant FAP (FRET-peptide substrate)) was 100 to 794 nM each time.
In the case of `C[C@@H](O)[C@@H]1NC(=O)[C@@H]2CCCN2C(=O)[C@@H]2CCCN2C(=O)[C@@H](NC(=O)C2CCCC2)CSCc2cc(CSCCNC(=O)CN3CCN(CC(=O)O)CCN(CC(=O)O)CCN(CC(=O)O)CC3)cc(c2)CSC[C@@H](C(=O)O)NC(=O)[C@H](Cc2ccccc2)NC(=O)[C@H](CCC(N)=O)NC1=O` [3BP-3909, Cp-[Cys(tMeBn(DOTA-AET))-Pro-Pro-Thr-Gln-Phe-Cys]-OH], the IC50 (in test [1]; at Human recombinant FAP (FRET-peptide substrate)) was 10 to 79.4 nM in each case.
As to `C[C@@H](O)[C@@H]1NC(=O)[C@@H]2CCCN2C(=O)[C@@H]2CCCN2C(=O)[C@@H](NC(=O)[C@H]2CCCO2)CSCc2cc(CSCCNC(=O)CN3CCN(CC(=O)O)CCN(CC(=O)O)CCN(CC(=O)O)CC3)cc(c2)CSC[C@@H](C(=O)O)NC(=O)[C@H](Cc2ccccc2)NC(=O)[C@H](CCC(N)=O)NC1=O` [3BP-3911, Rth-[Cys(tMeBn(DOTA-AET))-Pro-Pro-Thr-Gln-Phe-Cys]-OH], the IC50 (in test [1]; at Human recombinant FAP (FRET-peptide substrate)) was 10 to 79.4 nM in each case.
Consider `C#CCCC(=O)N[C@H]1CSCc2cc(CSCCNC(=O)CN3CCN(CC(=O)O)CCN(CC(=O)O)CCN(CC(=O)O)CC3)cc(c2)CSC[C@@H](C(=O)O)NC(=O)[C@H](Cc2ccccc2)NC(=O)[C@H](CCC(N)=O)NC(=O)[C@H]([C@@H](C)O)NC(=O)[C@@H]2CCCN2C(=O)[C@@H]2CCCN2C1=O` [3BP-3912, Pyn-[Cys(tMeBn(DOTA-AET))-Pro-Pro-Thr-Gln-Phe-Cys]-OH], for which the concentration for half-maximal inhibition (IC50) (commonly the concentration that inhibits the measured activity by half) in test [1] lay within 10 to 79.4 nM; on Human recombinant FAP (FRET-peptide substrate) it was 100 to 794 nM.
For `C#CCCCC(=O)N[C@H]1CSCc2cc(CSCCNC(=O)CN3CCN(CC(=O)O)CCN(CC(=O)O)CCN(CC(=O)O)CC3)cc(c2)CSC[C@@H](C(=O)O)NC(=O)[C@H](Cc2ccccc2)NC(=O)[C@H](CCC(N)=O)NC(=O)[C@H]([C@@H](C)O)NC(=O)[C@@H]2CCCN2C(=O)[C@@H]2CCCN2C1=O` [3BP-3913, Hyn-[Cys(tMeBn(DOTA-AET))-Pro-Pro-Thr-Gln-Phe-Cys]-OH], in that order: 10 to 79.4 nM and 10 to 79.4 nM.
With `C=CCCC(=O)N[C@H]1CSCc2cc(CSCCNC(=O)CN3CCN(CC(=O)O)CCN(CC(=O)O)CCN(CC(=O)O)CC3)cc(c2)CSC[C@@H](C(=O)O)NC(=O)[C@H](Cc2ccccc2)NC(=O)[C@H](CCC(N)=O)NC(=O)[C@H]([C@@H](C)O)NC(=O)[C@@H]2CCCN2C(=O)[C@@H]2CCCN2C1=O` [3BP-3914, Peet-[Cys(tMeBn(DOTA-AET))-Pro-Pro-Thr-Gln-Phe-Cys]-OH], the IC50 (in test [1]; on Human recombinant FAP (FRET-peptide substrate)) was 10 to 79.4 nM throughout.

Values taken from patent US20230212549A1, “COMPOUNDS COMPRISING A […] LIGAND AND USE THEREOF” (priority 2021, published 2023).
